In ChEMBL document CHEMBL5038624, “Construction and activity evaluation of novel dual-target (SE/CYP51) anti-fungal agents containing amide naphthyl structure” (Eur J Med Chem, 2022):
pIC50: −log10 of the molar value. ≈ marks a conversion by molar mass, not a printed value.

Assays:
[1] = tested on: Candida tropicalis; test: Antifungal activity against Candida tropicalis ATCC 1369 assessed as reduction in fungal growth incubated for 72 hrs by CLSI protocol based broth microdilution method; type: functional
[2] = tested on: Aspergillus fumigatus; test: Antifungal activity against Aspergillus fumigatus KM8001 assessed as reduction in fungal growth incubated for 72 hrs by CLSI protocol based broth microdilution method; type: functional
[3] = tested on: Pichia kudriavzevii; test: Antifungal activity against Candida krusei ATCC 6258 assessed as reduction in fungal growth incubated for 72 hrs by CLSI protocol based broth microdilution method; type: functional
[4] = tested on: Nakaseomyces glabratus; test: Antifungal activity against Candida glabrata ATCC 0001 assessed as reduction in fungal growth incubated for 72 hrs by CLSI protocol based broth microdilution method; type: functional
[5] = tested on: Candida albicans; test: Antifungal activity against Candida albicans SC5314 assessed as reduction in fungal growth incubated for 72 hrs by CLSI protocol based broth microdilution method; type: functional
[6] = tested on: Candida albicans; test: Induction of apoptosis against Candida albicans ATCC SC5314 assessed as mild apoptotic cells measured after 48 hrs by Annexin V-FITC/propidium iodide staining based flow cytometry (Rvb =0.29 %); type: functional
[7] = tested on: Candida albicans; test: Antifungal activity against Candida albicans strain 901 assessed as reduction in fungal growth incubated for 72 hrs by CLSI protocol based broth microdilution method; type: functional
[8] = tested on: Candida albicans; test: Inhibition of SE/CYP51 in Candida albicans ATCC SC5314 assessed as eburicol level incubated for 48 hrs by LC/MS analysis; parameters: scale not given: the % may be the effect or the level left
[9] = tested on: Candida albicans; test: Inhibition of SE/CYP51 in Candida albicans ATCC SC5314 assessed as lanosterol level incubated for 48 hrs by LC/MS analysis; parameters: scale not given: the % may be the effect or the level left
[10] = tested on: Candida albicans; test: Antifungal activity against Candida albicans strain 904 assessed as reduction in fungal growth incubated for 72 hrs by CLSI protocol based broth microdilution method; type: functional
[11] = Inhibition of SE in Candida albicans ATCC SC5314 measured after 30 mins by HPLC analysis
[12] = tested on: Candida albicans; test: Antifungal activity against Candida albicans strain CaR assessed as reduction in fungal growth incubated for 72 hrs by CLSI protocol based broth microdilution method; type: functional
[13] = tested on: Candida albicans; test: Induction of apoptosis against Candida albicans ATCC SC5314 assessed as viable cells measured after 48 hrs by Annexin V-FITC/propidium iodide staining based flow cytometry (reference value: 80.78 %); type: functional
[14] = tested on: Candida albicans; test: Antifungal activity against Candida albicans strain 17 assessed as reduction in fungal growth incubated for 72 hrs by CLSI protocol based broth microdilution method; type: functional
[15] = tested on: Candida albicans; test: Inhibition of SE/CYP51 in Candida albicans ATCC SC5314 assessed as squalene level incubated for 48 hrs by LC/MS analysis; parameters: scale not given: the % may be the effect or the level left
[16] = tested on: Candida albicans; test: Induction of apoptosis against Candida albicans ATCC SC5314 assessed as late apoptotic cells measured after 48 hrs by Annexin V-FITC/propidium iodide staining based flow cytometry (reference value: 0.71 %); type: functional
[17] = tested on: Candida albicans; test: Antifungal activity against Candida albicans strain 632 assessed as reduction in fungal growth incubated for 72 hrs by CLSI protocol based broth microdilution method; type: functional
[18] = tested on: Candida albicans; test: Inhibition of SE/CYP51 in Candida albicans ATCC SC5314 assessed as unknown sterol level incubated for 48 hrs by LC/MS analysis; parameters: scale not given: the % may be the effect or the level left
[19] = tested on: Candida albicans; test: Inhibition of SE/CYP51 in Candida albicans ATCC SC5314 assessed as ergosterol level incubated for 48 hrs by LC/MS analysis; parameters: scale not given: the % may be the effect or the level left
[20] = tested on: Candida albicans; test: Induction of apoptosis against Candida albicans ATCC SC5314 assessed as necrotic cells measured after 48 hrs by Annexin V-FITC/propidium iodide staining based flow cytometry (reference value: 18.22 %); type: functional

`O=C(/C=C/c1ccc2ccccc2c1)NC(Cn1ccnc1)C(=O)c1ccccc1` (stereo not drawn) showed an MIC50 [1] of 0.25 µg/mL (≈ 0.632 µM), an MIC50 [2] greater than 8 µg/mL and an MIC50 [3] of 0.5 µg/mL (≈ 1.26 µM). It also gave an MIC50 [4] of 0.25 µg/mL (≈ 0.632 µM) and an MIC50 [5] of 0.5 µg/mL (≈ 1.26 µM).

For `O=C(/C=C/c1cccc2ccccc12)NCC(=O)c1ccccc1`, the MIC50 [5] was 8 µg/mL (≈ 25.4 µM).

With `O=C(/C=C/c1ccc2ccccc2c1)NC(Cn1cncn1)c1ccccc1` (stereo not drawn) the MIC50 [1] was 0.25 µg/mL (≈ 0.679 µM), the MIC50 [2] was greater than 8 µg/mL and the MIC50 [3] was 0.5 µg/mL (≈ 1.36 µM). For the same compound, the MIC50 [4] was 0.5 µg/mL (≈ 1.36 µM) and the MIC50 [5] was 0.25 µg/mL (≈ 0.679 µM).

`O=C(/C=C/c1ccc2ccccc2c1)NC(C(=O)Nc1ccncc1)c1ccccc1` (stereo not drawn) gave an MIC50 [1] of 0.5 µg/mL (≈ 1.23 µM), an MIC50 [2] of 2 µg/mL (≈ 4.91 µM) and an MIC50 [3] of 0.5 µg/mL (≈ 1.23 µM). The MIC50 [4] was 0.5 µg/mL (≈ 1.23 µM) and the MIC50 [5] was 0.5 µg/mL (≈ 1.23 µM).

With `O=C(/C=C/c1cccc2ccccc12)NC(C(=O)NCc1ccncc1)c1ccccc1` (stereo not drawn) the MIC50 [1] was 2 µg/mL (≈ 4.74 µM), the MIC50 [2] was greater than 8 µg/mL and the MIC50 [3] was 4 µg/mL (≈ 9.49 µM). For the same compound, the MIC50 [4] was 0.5 µg/mL (≈ 1.19 µM) and the MIC50 [5] was 2 µg/mL (≈ 4.74 µM).

In the case of `O=C(/C=C/c1cccc2ccccc12)NC(C(=O)Nc1ccncc1)c1ccccc1` (stereo not drawn), the MIC50 [1] was 0.5 µg/mL (≈ 1.23 µM), the MIC50 [2] was greater than 8 µg/mL and the MIC50 [3] was 0.5 µg/mL (≈ 1.23 µM). It also gave an MIC50 [4] of 0.25 µg/mL (≈ 0.614 µM) and an MIC50 [5] of 0.5 µg/mL (≈ 1.23 µM).

`CN(C/C=C/c1ccccc1)Cc1cccc2ccccc12` [NAFTIFINE] gave an Activity [6] of 0.05%, an MIC50 [7] greater than 8 µg/mL and an Activity [8] of 5.2%. For the same compound, the MIC50 [1] was 0.5 µg/mL (≈ 1.74 µM), the Activity [9] was 15.2% and the MIC50 [2] was 4 µg/mL (≈ 13.9 µM). For the same compound, the MIC50 [10] was 4 µg/mL (≈ 13.9 µM), the pIC50 [11] was 6.33 and the MIC50 [3] was 0.25 µg/mL (≈ 0.87 µM). It also gave an MIC50 [4] of 0.5 µg/mL (≈ 1.74 µM), an MIC50 [12] greater than 8 µg/mL and an Activity [13] of 38.54%. It also gave an MIC50 [14] of 4 µg/mL (≈ 13.9 µM), an Activity [15] of 49.5% and an Activity [16] of 0.49%. The MIC50 [17] was 4 µg/mL (≈ 13.9 µM), the Activity [18] was 5.8% and the Activity [19] was 24.3%. It also gave an MIC50 [5] of 0.5 µg/mL (≈ 1.74 µM) and an Activity [20] of 60.92%.

Work on `O=C(NC(Cn1cncn1)C(=O)c1ccccc1)c1ccc2ccccc2c1` (stereo not drawn) yielded an MIC50 [1] of 0.25 µg/mL (≈ 0.675 µM), an MIC50 [2] of 4 µg/mL (≈ 10.8 µM) and an MIC50 [3] of 1 µg/mL (≈ 2.7 µM). For the same compound, the MIC50 [4] was 0.5 µg/mL (≈ 1.35 µM) and the MIC50 [5] was 0.25 µg/mL (≈ 0.675 µM).

With `O=C(/C=C/c1cccc2ccccc12)NC(Cn1ccnc1)c1ccccc1` (stereo not drawn) the MIC50 [7] was 4 µg/mL (≈ 10.9 µM), the MIC50 [1] was 0.25 µg/mL (≈ 0.68 µM) and the MIC50 [2] was 2 µg/mL (≈ 5.44 µM). The MIC50 [10] was greater than 8 µg/mL, the MIC50 [3] was 0.125 µg/mL (≈ 0.34 µM) and the MIC50 [4] was 0.5 µg/mL (≈ 1.36 µM). The MIC50 [12] was 4 µg/mL (≈ 10.9 µM), the MIC50 [14] was 4 µg/mL (≈ 10.9 µM) and the MIC50 [17] was greater than 8 µg/mL. It also gave an MIC50 [5] of 0.125 µg/mL (≈ 0.34 µM).

With `O=C(/C=C/c1cccc2ccccc12)NCc1ccccc1` the MIC50 [5] was 8 µg/mL (≈ 27.8 µM).

Compound `O=C(/C=C/c1ccc2ccccc2c1)NC(C(=O)NCc1ccncc1)c1ccccc1` (stereo not drawn) has an MIC50 [1] of 1 µg/mL (≈ 2.37 µM), an MIC50 [2] greater than 8 µg/mL and an MIC50 [3] of 2 µg/mL (≈ 4.74 µM). It also gave an MIC50 [4] of 1 µg/mL (≈ 2.37 µM) and an MIC50 [5] of 1 µg/mL (≈ 2.37 µM).

With `NC(=O)/C=C/c1cccc2ccccc12` the MIC50 [5] was 32 µg/mL (≈ 162 µM).

With `O=C(NC(Cn1ccnc1)c1ccccc1)c1cccc2ccccc12` (stereo not drawn) the MIC50 [1] was 0.5 µg/mL (≈ 1.46 µM), the MIC50 [2] was greater than 8 µg/mL and the MIC50 [3] was 1 µg/mL (≈ 2.93 µM). It also gave an MIC50 [4] of 1 µg/mL (≈ 2.93 µM) and an MIC50 [5] of 0.5 µg/mL (≈ 1.46 µM).

Compound `O=C(NC(Cn1ccnc1)c1ccccc1)c1ccc2ccccc2c1` (stereo not drawn) has an MIC50 [1] of 0.5 µg/mL (≈ 1.46 µM), an MIC50 [2] greater than 8 µg/mL and an MIC50 [3] of 0.5 µg/mL (≈ 1.46 µM). The MIC50 [4] was 0.25 µg/mL (≈ 0.732 µM) and the MIC50 [5] was 0.5 µg/mL (≈ 1.46 µM).
